Measurements as given in patent US5821046A, “RNA oligonucleotides that bind HIV tat protein” (RiboTargets Holdings PLC, priority 1990, dated 1998).
Entries after “also recorded” stand apart in the source; their conditions may differ. Where two headings read alike, the source gives them in different places.

Columns and labels:
[1] = tested on: tat-dependent promoter activity of viral LTR carrying the TAR sequence; assay: trans-activation CAT assay, test plasmids transfected into HeLa/C63/tat cells; assay type: cell-based, HeLa/C63/tat (clone 9) cells
Description: If tat binding to TAR is necessary for trans-activation, then viral LTRs carrying TAR sequences with low affinities for tat should always have reduced tat-dependent promoter activity in vivo. Site-directed mutagenesis experiments on TAR have shown that trans-activation requires sequences in both the U-rich bulge (10, 11) and the loop sequence (12, 27, 28). These observations have now been extended, using TAR mutations with known affinities for tat in transfection experiments, the results of which are shown in FIG. 8. The experiments used either HeLa cells (FIG. 8a-d) or a constitutive producer of tat, HeLa/C63/tat cells (FIG. 8e-f).
The TAR sequences depicted in FIG. 3 [SEQ ID NO: 1-11] were introduced into a test plasmid, pD5-3-3, which carries a LTR and approximately 300 bases of 5' flanking sequences derived from the infectious proviral clone NL4 (29). The bacterial chloramphenicol acetyltransferase (CAT) gene and SV40 intron and terminator sequence from pSV2-CAT (30) was inserted downstream of TAR by cloning into the HindIII site at +77. Trans-activation was measured either by cotransfection of HeLa cells with the test plasmids and the tat expression plasmid pC63-4-1 (6) (panels a-d in FIG. 10), or by transfection of the test plasmids alone into HeLa/C63/tat (clone 9) cells (panels e-h).
In these experiments, cells were plated at a density of 3×10^5 in a T25 flask and transfected by the calcium phosphate method (31). Transfections in HeLa cells used 8.0 ug of test plasmid, 1.0 to 10 ug of pC63-4-1 plasmid and 10 ug of calf thymus carrier DNA. Transfections of the HeLa/C63/tat (clone 9) cells used 0.5 to 10 ug of test plasmid and 10 ug of calf thymus carrier DNA. The HeLa/C63/tat (clone 9) cells were prepared by infection of HeLa cells with helper-free amphotrophic C63-4-1 MoMuLV-tat virus. Following selection in 2mg/ml G418 individual clones were expanded and the expression of tat protein confirmed by immunoprecipitation with monoclonal antibodies to tat (6). Cell extracts were prepared at 48h post-transfection in 150 ul lysis buffer (0.2% NP40, 20 mM Tris pH 8.0, 4mM MgCl2), heat inactivated at 65° C. for 10 min and stored at -20° C. To ensure that CAT activity was measured in the linear range of the assay (30), at less than 50% conversion of chloramphenicol in its acetylated forms, for each transfection, three different aliquots containing from 5 to 70 ul extract were assayed for CAT activity. Reactions contained extract diluted with lysis buffer to a final volume of 70 ul, 10 ul AcCoA (2.5mg/ml in lysis buffer); 0.5 ul (14C) - chloramphenicol (60 mCi/m mol) and were incubated for 45 min at 37° C. Reaction products were extracted with ethylacetate, separated by thin layer chromatography on silica plates and bands were counted in scintillation fluid to calculate the chloramphenicol conversion efficiency per 10 ul of extract.

[2] = tested on: HIV-1 tat protein; assay type: binding; details: 32P-labeled RNA transcript, 0 to 600 ng tat
Experimental: i) Gel retardation assays (FIG. 6) Method RNA transcripts were prepared by transcription with either T3 or T7 RNA polymerases of TAR regions residues +1 to +57, cloned between the HindIII and EcoRI sites of the Bluescribe M13+expression vector (Stratagene). RNA transcripts corresponding to HIV-1 TAR [SEQ ID NO: 1], SSA [SEQ ID NO: 3], SAA and SAS [SEQ ID NO: 5] were synthesized from clones linearized with EcoRI and transcribed with T3 RNA polymerase. RNA transcripts corresponding to the antisense HIV-1 TAR […], AAS , ASS [SEQ ID NO: 4], and ASA (not shown) sequences were prepared from the same plasmids linearized with HindIII and transcribed using T7 RNA polymerase. All other RNA molecules were synthesized using T3 RNA polymerase following EcoRI cleavage of the plasmid vector. The RNA products each carry 13 nucleotides of vector sequence at their 5' end and four nucleotides at their 3' ends. […] Transcription mixtures contained 1 ug linearized plasmid, 40 mM Tris-HCl pH 8.0, 10 mM MgCl 2, 2 mM Spermidine-HCl, 50 mM NaCl, 100 uM each ribonucleotide triphosphate, 40 uCi (alpha-^32 P) UTP (410 Ci/m mol) and 10 units of RNA polymerase in a final volume of 30 ul and were incubated at 37° C. for 30 minutes. After phenol extraction and precipitation from ethanol the RNA was purified from a 9% polyacrylamide denaturing gel. The specific activity of the RNA product was determined and appropriate amounts were used in binding assays. Binding reaction mixtures (1 5ul) contained 1 ng of uniformly labeled RNA probe, 0.5 ug calf thymus DNA, 0.2 ug yeast TRNA, 40 units RNAsin (Promega), 50 mM Tris-HCl and 20 mM KCl and 0 to 600 ng tat protein, prepared from E. coli beta-galactosidase-tat fusion proteins, as described previously (6). After incubation at either 30° C. or 4° C. for 10-20 minutes, the reaction mixtures were applied to a 6% non-denaturing polyacrylamide gel (Acrylamide: Bis, 40:0.5) in 3.3 mM sodium acetate, 6.7 mM Tris (adjusted to pH 7.9 with HCl). The gel buffer was recirculated during electrophoresis at 35 mA for approximately 2 hours at room temperature. Gels were dried and exposed to X-ray film at -80° C. using intensifying screens.

| Substance | CAT expression [1] | complex formation with tat in gel retardation assay [2] | complex formation with tat in gel retardation assay ([2]; listed as SEQ ID NO: 8) | complex formation with tat in gel retardation assay ([2]; listed as delta U3 (bulge)) |
| --- | --- | --- | --- | --- |
| ASS: anti-sense lower stem, sense upper stem and loop sequences (GGGUUCCCUAGUUAGACCAGAUUUGAGCCUGGGAGCUCUCUGGCUAACCAGAGAGACCC; chemistry not given here) | wild-type expression levels | discrete complex formation |  |  |
| G28 to C28: TAR point mutation expected to disrupt the top of the TAR stem/loop structure (GGGUCUCUCUGGUUAGACCAGAUUUGACCCUGGGAGCUCUCUGGCUAACUAGGGAACCC; chemistry not given here) | null phenotypes | failed to bind to tat |  |  |
| G to U (loop): TAR RNA in which residues 32-34 are changed to uridine (U) (GGGUCUCUCUGGUUAGACCAGAUUUGAGCCUUUUAGCUCUCUGGCUAACUAGGGAACCC; RNA, backbone not given here) | significant CAT activity observed at high plasmid concentrations | discrete complex formation |  |  |
| HIV-1 TAR (UUU): full length HIV-1 TAR RNA of 59 residues prepared by transcription, wild type, UUU bulge (GGGUCUCUCUGGUUAGACCAGAUUUGAGCCUGGGAGCUCUCUGGCUAACUAGGGAACCC; unmodified RNA) [reference compound] |  | discrete complex formation |  |  |
| SAS: anti-sense upper stem flanked by sense lower stem and loop sequences (GGGUCUCUCUGGUUAGCCAGAGAGCCUGGGAGCUCAAAUCUGGUCUAACUAGGGAACCC; chemistry not given here) | no significant increase over basal levels of CAT expression | No complexes were formed; also recorded: fail to form complexes |  |  |
| SSA: sense stem, antisense loop sequence (GGGUCUCUCUGGUUAGACCAGAUUUGAGCUCCCAGGCUCUCUGGCUAACUAGGGAACCC; chemistry not given here) | no significant increase over basal levels of CAT expression | discrete complex formation |  |  |
| delta U (bulge): TAR RNA in which residues 23-25 are deleted (GGGUCUCUCUGGUUAGACCAGAGAGCCUGGGAGCUCUCUGGCUAACUAGGGAACCC; RNA, backbone not given here) | null phenotypes |  | abolished tat binding | No complexes were formed |
